# From article PMC6349357, “Computational and experimental analysis of bioactive peptide linear motifs in the integrin adhesome” (PLoS ONE, 2019)
# Entries after “also recorded” stand apart in the source; their conditions may differ. Marks after values point to notes of the source that are not given here.
# Key:
# [1] = system: TRAP-activated platelets; assay: Inhibition of TRAP-induced platelet aggregation after pre-incubation with peptide; assay type: cell-based, human (healthy volunteers)
# How it was run: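 Washed human platelets (from ACD blood, PGE1-treated) were used at 3x10^5/μl in buffer A pH 7.4 with 1.8 mM CaCl2. Light-transmission aggregometry ran at 37°C with stirring at 1100 rpm. Peptide or buffer was added at 2 min, TRAP 6 min later, and aggregation was recorded for a further 7 min.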
# [2] = biological target: T1, vinculin (Homo sapiens, UniProt P18206); assay: Surface plasmon resonance, peptides injected over immobilised vinculin; assay type: binding; conditions: SPR, CM5 chip, serial peptide injections at 1 mM; rank order
# T1 sequence (P18206 1-1066 isoform P18206-2): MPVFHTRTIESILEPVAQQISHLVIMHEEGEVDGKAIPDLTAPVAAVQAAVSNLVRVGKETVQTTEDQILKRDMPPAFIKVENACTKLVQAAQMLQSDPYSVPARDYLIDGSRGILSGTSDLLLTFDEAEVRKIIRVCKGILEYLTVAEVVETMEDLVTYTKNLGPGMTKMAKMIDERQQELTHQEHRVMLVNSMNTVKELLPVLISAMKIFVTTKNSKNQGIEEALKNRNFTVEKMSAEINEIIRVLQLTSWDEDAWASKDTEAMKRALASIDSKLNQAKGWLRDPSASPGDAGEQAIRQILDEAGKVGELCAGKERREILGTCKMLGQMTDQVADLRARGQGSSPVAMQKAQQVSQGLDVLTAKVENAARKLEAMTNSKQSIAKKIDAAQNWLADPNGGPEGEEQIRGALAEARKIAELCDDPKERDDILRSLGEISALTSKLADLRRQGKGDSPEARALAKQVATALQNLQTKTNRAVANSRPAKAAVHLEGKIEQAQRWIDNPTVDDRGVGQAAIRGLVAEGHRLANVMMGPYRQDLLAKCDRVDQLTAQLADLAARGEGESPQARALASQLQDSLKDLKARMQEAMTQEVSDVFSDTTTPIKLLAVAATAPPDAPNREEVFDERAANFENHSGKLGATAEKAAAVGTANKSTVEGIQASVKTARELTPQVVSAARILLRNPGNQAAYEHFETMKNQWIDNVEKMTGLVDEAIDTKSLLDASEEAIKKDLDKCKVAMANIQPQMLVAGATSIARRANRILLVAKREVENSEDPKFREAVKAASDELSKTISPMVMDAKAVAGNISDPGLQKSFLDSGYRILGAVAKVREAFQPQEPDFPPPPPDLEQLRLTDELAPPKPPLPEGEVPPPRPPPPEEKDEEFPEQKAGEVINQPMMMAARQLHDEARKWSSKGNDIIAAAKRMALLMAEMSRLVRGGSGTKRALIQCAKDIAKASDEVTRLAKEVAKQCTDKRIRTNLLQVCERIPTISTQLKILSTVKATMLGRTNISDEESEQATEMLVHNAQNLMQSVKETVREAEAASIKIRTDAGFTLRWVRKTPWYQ
# Protocol: The SPR experiments were performed using a Biacore T200 system (GE Healthcare), and Series S CM5 or SA chips with 4 flow cells each.
# Lyophilized vinculin was dissolved in flow buffer to a concentration of 1 mg/ml and covalently coupled onto the carboxymethylated dextran matrix of CM5 sensor chips using standard amine coupling. The flow buffer contained 10 mM HEPES, 150 mM NaCl, 3 mM EDTA, 0.05% surfactant P20. The chip was activated with an injection of 70 μl of a mixture of 0.05 M EDC and 0.2 M NHS, followed by the injection of approximately 70 μl of 10 μg/ml vinculin in 10 mM sodium acetate, pH 5.0 in one flow cell to yield a response of 7200 RU. Remaining reactive groups in the channel were blocked with an injection of 100 μl ethanolamine. Binding experiments were performed by injecting peptides for 120 s at a flow rate of 20 μl/min, at a concentration of 1 mM in the flow buffer over the chip surface to monitor association kinetics, followed by buffer flow for 120 s to measure dissociation kinetics. Between experiments, the surface was regenerated by injecting a 60 second pulse of 10 mM glycine pH 2.
# [3] = biological target: T2, paxillin in HeLa cells (Homo sapiens, UniProt P49023); assay: Co-localization of 5FAM-labeled peptide with paxillin in HeLa cells (microscopy); assay type: cell-based; conditions: 15 μM, 5-15 minutes
# T2 construct: endogenous in cells; host or cells: HeLa
# T2 sequence (P49023 whole entry): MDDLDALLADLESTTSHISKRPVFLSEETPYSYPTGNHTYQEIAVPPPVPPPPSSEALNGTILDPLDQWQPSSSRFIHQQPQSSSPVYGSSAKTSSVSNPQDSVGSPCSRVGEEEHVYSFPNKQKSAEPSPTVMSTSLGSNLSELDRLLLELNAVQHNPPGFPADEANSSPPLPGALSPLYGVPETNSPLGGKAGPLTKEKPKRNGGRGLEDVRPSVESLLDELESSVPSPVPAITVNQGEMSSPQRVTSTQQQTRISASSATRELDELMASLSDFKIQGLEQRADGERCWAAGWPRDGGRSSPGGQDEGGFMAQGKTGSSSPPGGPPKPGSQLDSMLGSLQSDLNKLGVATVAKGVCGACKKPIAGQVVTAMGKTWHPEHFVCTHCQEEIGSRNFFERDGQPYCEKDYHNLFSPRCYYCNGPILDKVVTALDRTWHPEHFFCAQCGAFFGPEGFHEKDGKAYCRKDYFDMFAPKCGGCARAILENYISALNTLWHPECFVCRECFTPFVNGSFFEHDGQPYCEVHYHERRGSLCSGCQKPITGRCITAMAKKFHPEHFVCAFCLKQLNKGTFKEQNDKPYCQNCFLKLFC
# Protocol: HeLa cells were seeded on a 24-well plate with inserted coverslips at a density of 30000 cells/well. After 24h the cells were treated with 15 μM peptide for the desired amount of time (5, 10, 15 minutes). Cells were then fixed in 3% paraformaldehyde (PFA, Sigma) for 20 minutes and permeabilized with 0.1% Triton X-100 (Sigma) for 5 minutes at room temperature. Cells were then washed 3 times with PBS and stained with antibodies. Staining with primary antibody (paxillin/vinculin (Abcam)) was performed for 30 minutes, followed by three PBS washes and secondary staining using goat anti-mouse Alexa 568 antibody (Life Technologies) for 30 minutes. Then the nuclei were stained with 0.2 μg/ml Hoechst33342, the coverslips were thoroughly washed with PBS and mounted on glass slides with Mowiol mounting medium. The slides were then imaged on a FluoView FV1000 laser scanning microscope (Olympus) with 60x UPLSAPO 1.35NA (Olympus) oil immersion objective.
substance,measurement,setting,value
tat-WEQLLTTIARTINEVENQI-(NH2) [tat-ACTN1_VBS],"Aggregation after TRAP, peptide alone 1x (A 1x / B 1x)","[1]; TRAP 2 μM after 6 minutes pre-incubation, 4 μM pal-peptides, 10 μM tat-peptides, mean n = 3",68.33
same,"Aggregation after TRAP, peptide alone 2x (A 2x / B 2x)","[1]; TRAP 2 μM after 6 minutes pre-incubation, double concentration of 4 μM (pal) / 10 μM (tat), mean n = 3",68.67
same,Platelet aggregation after TRAP activation,"[1]; platelet aggregation induced by 4 μM TRAP in platelets pre-incubated with peptide (low value = inhibition), pal-peptides 20 μM, tat-peptides 50 μM, mean, n>=3",61 ^*
same,"Aggregation after TRAP activation, donor e","[1]; replicate donor e, TRAP 4 μM, pal 20 μM, tat 50 μM",66
same,"Aggregation after TRAP activation, donor k","[1]; replicate donor k, TRAP 4 μM, pal 20 μM, tat 50 μM",51
same,"Aggregation after TRAP activation, donor l","[1]; replicate donor l, TRAP 4 μM, pal 20 μM, tat 50 μM",68
same,Relative binding affinity to immobilised vinculin,[2],tat-ACTN1_VBS > TLN1_VBS-tat > ACTN1_VBS-tat > ACTN1_VBS; also recorded: bound with relatively higher affinity
same,Co-localization with paxillin,[3],did not co-localize
